The results in this text go back to publication PMC11756644 (ACS chemical biology, 2015).

For the assay, the target named is T1, tPAD1 (Saccharomyces cerevisiae, UniProt P33751).
T1 sequence (P33751 55-242): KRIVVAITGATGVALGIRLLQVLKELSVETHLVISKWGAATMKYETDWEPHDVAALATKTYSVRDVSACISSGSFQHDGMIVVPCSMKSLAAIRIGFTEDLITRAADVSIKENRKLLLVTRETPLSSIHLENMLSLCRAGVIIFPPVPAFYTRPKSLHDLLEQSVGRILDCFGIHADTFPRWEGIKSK
The assay is described as follows: UV-visible spectrum of purified protein. It is filed as binding. The settings on record: co-purified from E. coli; oxidized FMN.

The structures appear in SMILES notation.

On to `Cc1cc2nc3c(=O)[nH]c(=O)nc-3n(C[C@H](O)[C@H](O)[C@H](O)COP(=O)(O)O)c2cc1C` [FMN], for which the “UV-visible spectrum of purified protein; LC-ESI-MS of released flavin” value is given as “The presence of FMN was confirmed by LC-ESI-MS. FMN was released from tPAD1 by precipitation”.
